These results are taken from ChEMBL document CHEMBL3769406, “A phenotypic drug discovery study on thienodiazepine derivatives as inhibitors of T cell proliferation induced by CD28 co-stimulation leads to the discovery of a first bromodomain inhibitor” (Bioorg Med Chem Lett, 2016).

Assay [1] in a line: Immunosuppressive activity in BALB/c mouse splenic T cells assessed as inhibition of PMA/CD28 induced cell proliferation after 24 hrs by [methyl-3H]thymidine incorporation assay. It is filed as functional, cell-based. (Incorporation of labelled thymidine or its analogues reports DNA synthesis.)
The nature of assay [2]: Cytotoxicity against human U87MG cells after 72 hrs by WST-8 assay. Type of assay: functional, U-87MG ATCC. The settings on record: U-87 MG. For orientation: Formazan colour is commonly taken as a measure of viable cells.
Assay [3] is described as follows: Cytotoxicity against human RPMI8226 cells after 72 hrs by WST-8 assay. Type of assay: functional. The settings on record: RPMI-8226, 72 h.
The target of assay [4] is Bromodomain-containing protein 2 (Homo sapiens) (UniProt P25440). Nature of the assay: Inhibition of Flag-tagged BRD2 (unknown origin)-biotinylated AcH4 (Lys5, 8, 12, 16) histone peptide binding expressed in CHO cells after 60 mins by TR-FRET assay. It is filed as cell-based. A general note: In TR-FRET formats the signal depends on donor and acceptor labels being close together.
Bromodomain-containing protein 2 (Homo sapiens), sequence (P25440 whole entry, looked up): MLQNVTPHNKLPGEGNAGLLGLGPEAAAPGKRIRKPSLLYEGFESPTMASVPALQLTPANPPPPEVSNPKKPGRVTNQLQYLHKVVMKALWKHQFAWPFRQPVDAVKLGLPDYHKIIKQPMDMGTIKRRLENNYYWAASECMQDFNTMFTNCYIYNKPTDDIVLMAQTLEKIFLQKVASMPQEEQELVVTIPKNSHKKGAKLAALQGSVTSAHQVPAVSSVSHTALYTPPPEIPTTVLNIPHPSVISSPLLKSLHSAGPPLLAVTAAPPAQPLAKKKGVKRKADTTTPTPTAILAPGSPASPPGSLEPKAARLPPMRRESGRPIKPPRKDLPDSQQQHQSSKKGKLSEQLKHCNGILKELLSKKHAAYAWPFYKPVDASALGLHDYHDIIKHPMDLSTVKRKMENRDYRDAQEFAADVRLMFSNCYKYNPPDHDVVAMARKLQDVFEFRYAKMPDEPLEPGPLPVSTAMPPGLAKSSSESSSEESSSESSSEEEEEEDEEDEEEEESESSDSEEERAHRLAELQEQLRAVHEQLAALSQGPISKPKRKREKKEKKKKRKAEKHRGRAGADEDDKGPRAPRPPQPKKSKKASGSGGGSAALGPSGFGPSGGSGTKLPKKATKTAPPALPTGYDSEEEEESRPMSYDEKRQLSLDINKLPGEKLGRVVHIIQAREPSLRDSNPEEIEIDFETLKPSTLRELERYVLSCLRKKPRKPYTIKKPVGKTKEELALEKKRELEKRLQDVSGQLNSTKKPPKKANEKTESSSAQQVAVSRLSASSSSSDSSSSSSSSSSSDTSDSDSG

Assay [5] is described as follows: Antitumor activity against human HL60 cells xenografted in nude mouse assessed as inhibition of relative tumor growth at 10 mg/kg, po qd administered for 14 days. It is filed as functional. The settings on record: HL-60, po, 336 h, read-out: TGI.
The next assay deals with LNCaP. The assay is described as follows: Cytotoxicity against human LNCAP cells after 72 hrs by WST-8 assay. Type of assay: functional.
A further assay has as its system B16. Nature of the assay: Cytotoxicity against mouse B16 cells after 72 hrs by WST-8 assay. It is filed as functional. The settings on record: B16, 72 h.
In a further assay the test system is Mus musculus. Nature of the assay: Immunosuppressive activity in collagen-induced DBA/1J mouse arthritis model at 0.3 to 1 mg/kg, po administered for […] of immunization with bovine type II collagen measured at 21 to 42 days after primary immunization. Type of assay: functional, organism-based.
A short description of assay [6]: Cytotoxicity against mouse M1 cells after 72 hrs by WST-8 assay. It is filed as functional. The conditions noted are these: M1, 72 h.
Another assay deals with A549. Nature of the assay: Cytotoxicity against human A549 cells after 72 hrs by WST-8 assay. Type of assay: functional. The conditions noted are these: A549, 72 h.
Assay [7] has as its target Bromodomain-containing protein 2 (Homo sapiens) (UniProt P25440). The assay is described as follows: Competitive inhibition of BRD2 in PMA /ionomycin activated human Jurkat cell lysate in presence of (S)-4-{3'-Cyano-4'-[3-(3-{2-[5-((3aR,6S,6aS)-2-oxo-hexahydro-thieno[3,4-d]imidazol-6-yl)-pentanoylamino]-ethyldisulfanyl}-propionylamino)-propoxy]-biphenyl-4-yl}-2,3,9-trimethyl-6H-1-thia-5,7,8,9a-tetraaza-cyclopenta[e]azulene-6-yl]acetic acid ethyl ester/avidin-resin by pull down assay. Type of assay: cell-based.

Assay [8] can be described thus: Antitumor activity against human HL60 cells xenografted in nude mouse assessed as inhibition of relative tumor growth at 10 mg/kg, po bid administered for 14 days. It is filed as functional. The settings on record: HL-60, po, 336 h, read-out: TGI.
Assay [9] can be described thus: Cytotoxicity against mouse LLC cells after 72 hrs by WST-8 assay. It is filed as functional. The conditions noted are these: Lewis lung carcinoma.
The nature of assay [10]: Cytotoxicity against human HL60 cells after 72 hrs by WST-8 assay. The conditions noted are these: HL-60, 72 h. Type of assay: functional.
In another assay the test system is Daudi. Nature of the assay: Cytotoxicity against human Daudi cells after 72 hrs by WST-8 assay. Type of assay: functional.
A short description of assay [11]: Cytotoxicity against human MV411 cells after 72 hrs by WST-8 assay. The settings on record: MV4-11, 72 h. It is filed as functional.
Assay [12] can be described thus: Cytotoxicity against human LN18 cells after 72 hrs by WST-8 assay. The settings on record: LN-18, 72 h. It is filed as functional.
A short description of assay [13]: Cytotoxicity against human SKOV3 cells after 72 hrs by WST-8 assay. The conditions noted are these: SK-OV-3, 72 h. It is filed as functional.
The nature of assay [14]: Cytotoxicity against human EBC1 cells after 72 hrs by WST-8 assay. It is filed as functional. The conditions noted are these: EBC-1, 72 h.
Assay [15] can be described thus: Cytotoxicity against human COLO205 cells after 72 hrs by WST-8 assay. The settings on record: COLO 205, 72 h. It is filed as functional.
Assay [16] has as its target T1, Bromodomain-containing protein 4 (Homo sapiens, UniProt O60885). The assay is described as follows: Inhibition of Flag-tagged BRD4 (unknown origin)-biotinylated AcH4 (Lys5, 8, 12, 16) histone peptide binding expressed in CHO cells after 60 mins by TR-FRET assay. Type of assay: cell-based.
The subject of a further assay is HeLa. Nature of the assay: Cytotoxicity against human HeLa cells after 72 hrs by WST-8 assay. It is filed as functional.
Assay [17] in a line: Cytotoxicity against human KIM1 cells after 72 hrs by WST-8 assay. It is filed as functional. The conditions noted are these: KIM1, 72 h.
Assay [18] concerns the target T1, Bromodomain-containing protein 4. The assay is described as follows: Competitive inhibition of BRD4 in PMA /ionomycin activated human Jurkat cell lysate in presence of (S)-4-{3'-Cyano-4'-[3-(3-{2-[5-((3aR,6S,6aS)-2-oxo-hexahydro-thieno[3,4-d]imidazol-6-yl)-pentanoylamino]-ethyldisulfanyl}-propionylamino)-propoxy]-biphenyl-4-yl}-2,3,9-trimethyl-6H-1-thia-5,7,8,9a-tetraaza-cyclopenta[e]azulene-6-yl]acetic acid ethyl ester/avidin-resin by pull down assay. Type of assay: cell-based.

Assay [19] has as its target Bromodomain-containing protein 3 (Homo sapiens) (UniProt Q15059). The assay is described as follows: Competitive inhibition of BRD3 in PMA /ionomycin activated human Jurkat cell lysate in presence of (S)-4-{3'-Cyano-4'-[3-(3-{2-[5-((3aR,6S,6aS)-2-oxo-hexahydro-thieno[3,4-d]imidazol-6-yl)-pentanoylamino]-ethyldisulfanyl}-propionylamino)-propoxy]-biphenyl-4-yl}-2,3,9-trimethyl-6H-1-thia-5,7,8,9a-tetraaza-cyclopenta[e]azulene-6-yl]acetic acid ethyl ester/avidin-resin by pull down assay. It is filed as cell-based.

The next assay concerns A2780. Nature of the assay: Cytotoxicity against human A2780 cells after 72 hrs by WST-8 assay. The conditions noted are these: A2780, 72 h. Type of assay: functional.
A short description of assay [20]: Cytotoxicity against human U937 cells after 72 hrs by WST-8 assay. The conditions noted are these: U-937, 72 h. Type of assay: functional.
Assay [21] can be described thus: Antitumor activity against human HL60 cells xenografted in nude mouse assessed as inhibition of relative tumor growth at 30 mg/kg, po qd administered for 14 days. Type of assay: functional. The conditions noted are these: HL-60, po, 336 h, read-out: TGI.
Assay [22] deals with Bromodomain-containing protein 3 (Homo sapiens) (UniProt Q15059). Nature of the assay: Inhibition of Flag-tagged BRD3 (unknown origin)-biotinylated AcH4 (Lys5, 8, 12, 16) histone peptide binding expressed in CHO cells after 60 mins by TR-FRET assay. It is filed as cell-based.
Bromodomain-containing protein 3 (Homo sapiens), sequence (Q15059 2-726 limits assumed): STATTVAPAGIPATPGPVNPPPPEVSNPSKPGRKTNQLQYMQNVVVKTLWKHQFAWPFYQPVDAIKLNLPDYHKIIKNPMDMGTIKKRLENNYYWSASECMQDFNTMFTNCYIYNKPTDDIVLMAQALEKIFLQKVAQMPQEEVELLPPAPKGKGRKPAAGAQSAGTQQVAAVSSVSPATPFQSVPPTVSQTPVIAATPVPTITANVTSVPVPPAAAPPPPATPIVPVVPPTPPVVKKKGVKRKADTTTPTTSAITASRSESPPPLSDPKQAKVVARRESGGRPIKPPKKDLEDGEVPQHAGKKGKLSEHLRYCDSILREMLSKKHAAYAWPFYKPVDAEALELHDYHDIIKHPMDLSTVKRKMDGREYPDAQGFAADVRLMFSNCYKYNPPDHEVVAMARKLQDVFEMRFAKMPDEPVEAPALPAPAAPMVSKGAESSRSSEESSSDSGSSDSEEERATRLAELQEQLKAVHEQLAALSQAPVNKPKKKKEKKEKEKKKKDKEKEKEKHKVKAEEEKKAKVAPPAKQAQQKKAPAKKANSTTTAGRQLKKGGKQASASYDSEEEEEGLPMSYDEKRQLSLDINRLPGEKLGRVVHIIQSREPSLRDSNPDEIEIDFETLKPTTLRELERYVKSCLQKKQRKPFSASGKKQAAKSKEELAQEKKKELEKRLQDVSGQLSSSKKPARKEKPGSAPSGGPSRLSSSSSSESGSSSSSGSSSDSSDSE

Active and inactive are the calls of the source. No cut-off for these calls is given here.

`CCC1N=C(c2ccc(Cl)cc2)c2c(sc(C)c2C)-n2c(C)nnc21` (racemic): the IC50 – broadly, the concentration needed to halve the response being measured – in assay [1] stood at 0.34 µM.
In the case of `COC(=O)C[C@@H]1N=C(c2ccc(-c3ccccc3C#N)cc2)c2c(sc(C)c2C)-n2c(C)nnc21`, the IC50 in assay [1] amounted to 0.18 µM.
As for `COC(=O)C[C@@H]1N=C(c2ccc(-c3cccc(OC)c3)cc2)c2c(sc(C)c2C)-n2c(C)nnc21`, in [1], the IC50 was 0.036 µM.
On to `Cc1sc2c(c1C)C(c1ccc(Cl)cc1)=NC(Cc1ccccc1)c1nnc(C)n1-2` (racemic), for which the IC50 in assay [1] amounted to 0.5 µM.
Same read-out and setting: for `COC(=O)C[C@H]1N=C(c2ccc(Cl)cc2)c2c(sc(C)c2C)-n2c(C)nnc21` the value was > 10 µM.
For the molecule `COC(=O)C[C@@H]1N=C(c2ccc(-c3cccc(C#N)c3)cc2)c2c(sc(C)c2C)-n2c(C)nnc21`, the GI50 (in general, the concentration giving 50% growth inhibition) is > 10 µM in assay [2]; 0.069 µM in assay [3]; 0.201 µM in the assay on LNCaP; 0.08 µM with B16; 0.003 µM in [6]; > 10 µM with A549. Moreover, the concentration for 50% growth inhibition (GI50) in [9] stood at 1.5 µM; in [10], 0.007 µM; with Daudi, 0.067 µM; in assay [11], 0.019 µM; in assay [12] it was 0.207 µM; in assay [13], 5.27 µM. For the same molecule, the GI50 in [14] turned out to be 0.207 µM; in assay [15], 0.484 µM; in the assay on HeLa, 0.274 µM; in assay [17], 0.104 µM; in the assay on A2780 it was 0.13 µM; in assay [20], 0.829 µM. Besides, the inhibition entry in assay [4] and in [22] was “Active” in each case. Besides, the inhibition in vivo at 10 mg/kg was 43% in assay [5] and 80% in assay [8]. In addition, the result with Mus musculus was Active. For the same molecule, the inhibition result in assay [7], in assay [18] and in assay [19] was “Dose-dependent effect” throughout. Further, the IC50 came to 0.026 µM in [1] and 0.0339 µM in [16]. In addition, the inhibition in vivo at 30 mg/kg in assay [21] is 65%.
For `Cc1sc2c(c1C)C(c1ccc(Cl)cc1)=NC(CCc1ccccc1)c1nnc(C)n1-2` (racemic), in [1], the IC50 turned out to be 2.68 µM.
The same measure, in the same setting: for `Cc1sc2c(c1C)C(c1ccc(Cl)cc1)=N[C@@H](CCC#N)c1nnc(C)n1-2` the value was 0.1 µM.
As to `COC(=O)C[C@H]1N=C(c2ccc(-c3cccc(C#N)c3)cc2)c2c(sc(C)c2C)-n2c(C)nnc21`, the inhibition entry in assay [7], in [18] and in [19] was “inactive” throughout.
Consider `Cc1sc2c(c1C)C(c1ccc(Cl)cc1)=N[C@@H](CC(=O)OC(C)(C)C)c1nnc(C)n1-2`, for which, in [1], the IC50 came to 0.11 µM.
On the same count and under the same terms, with `COC(=O)C[C@@H]1N=C(c2ccc(-c3cccc(O)c3)cc2)c2c(sc(C)c2C)-n2c(C)nnc21` the figure was 0.032 µM; with `COC(=O)C[C@@H]1N=C(c2ccc(-c3cccc(C(C)=O)c3)cc2)c2c(sc(C)c2C)-n2c(C)nnc21`, 0.015 µM.
For `Cc1sc2c(c1C)C(c1ccc(Cl)cc1)=N[C@@H](CCO)c1nnc(C)n1-2`, in assay [1], the IC50 was found to be 0.58 µM.
As for `COC(=O)C[C@@H]1N=C(c2ccc(-c3cccc(NC(C)=O)c3)cc2)c2c(sc(C)c2C)-n2c(C)nnc21`, in assay [1], the IC50 is 0.027 µM.
For the molecule `COC(=O)C[C@@H]1N=C(c2ccc(-c3ccc(OC)cc3)cc2)c2c(sc(C)c2C)-n2c(C)nnc21`, the IC50 in [1] was 0.053 µM.
Regarding `Cc1sc2c(c1C)C(c1ccc(Cl)cc1)=NC(Cc1cccnc1)c1nnc(C)n1-2` (racemic), in [1], the IC50 is 0.4 µM.
As to `COC(=O)C[C@@H]1N=C(c2ccc(-c3ccc(O)c(C#N)c3)cc2)c2c(sc(C)c2C)-n2c(C)nnc21`, in assay [1], the IC50 was found to be 0.0025 µM.
Consider `Cc1sc2c(c1C)C(c1ccc(Cl)cc1)=NCc1nnc(C)n1-2`, for which the IC50 in [1] worked out at 2.5 µM.
Regarding `Cc1sc2c(c1C)C(c1ccc(Cl)cc1)=NC(Cc1ccncc1)c1nnc(C)n1-2` (racemic), the IC50 in [1] came out at 0.24 µM.
With `COC(=O)C[C@@H]1N=C(c2ccc(-c3cccc(OC(F)(F)F)c3)cc2)c2c(sc(C)c2C)-n2c(C)nnc21`, the IC50 in assay [1] came out at 0.16 µM.
On the same count and under the same terms, for `COC(=O)C[C@@H]1N=C(c2ccc(-c3ccccc3OC)cc2)c2c(sc(C)c2C)-n2c(C)nnc21` the value was 0.19 µM; for `Cc1sc2c(c1C)C(c1ccc(Cl)cc1)=NC(C)c1nnc(C)n1-2` (racemic), 0.39 µM.
Turning to `Cc1sc2c(c1C)C(c1ccc(Cl)cc1)=N[C@@H](CC(=O)OC(C)C)c1nnc(C)n1-2`, the IC50 in assay [1] stood at 0.044 µM.
For the molecule `COC(=O)C[C@@H]1N=C(c2ccc(-c3ccc(C#N)cc3)cc2)c2c(sc(C)c2C)-n2c(C)nnc21`, the IC50 in assay [1] amounted to 0.033 µM.
On the same count and under the same terms, for `Cc1sc2c(c1C)C(c1ccc(Cl)cc1)=N[C@@H](CC(=O)OCc1ccccc1)c1nnc(C)n1-2` the value was 0.036 µM; for `COC(=O)CC1N=C(c2ccc(-c3ccccc3)cc2)c2c(sc(C)c2C)-n2c(C)nnc21` (racemic), 0.22 µM.
With `COC(=O)C[C@@H]1N=C(c2ccc(Cl)cc2)c2c(sc(C)c2C)-n2c(C)nnc21`, the IC50 in assay [1] came out at 0.038 µM.
On to `CCCOC(=O)C[C@@H]1N=C(c2ccc(Cl)cc2)c2c(sc(C)c2C)-n2c(C)nnc21`, for which the IC50 in [1] was 0.03 µM.
For `COCC[C@@H]1N=C(c2ccc(Cl)cc2)c2c(sc(C)c2C)-n2c(C)nnc21`, the IC50 in assay [1] amounted to 0.39 µM.
`CCOC(=O)C[C@@H]1N=C(c2ccc(Cl)cc2)c2c(sc(C)c2C)-n2c(C)nnc21`: the IC50 in assay [1] worked out at 0.012 µM.
Still for that read-out and setting: with `Cc1sc2c(c1C)C(c1ccc(Cl)cc1)=NC(Cc1ccccn1)c1nnc(C)n1-2` (racemic) the figure was 0.33 µM; with `COC(=O)C[C@@H]1N=C(c2ccc(-c3cccc(S(C)(=O)=O)c3)cc2)c2c(sc(C)c2C)-n2c(C)nnc21`, 0.0098 µM.
